# Test results taken from US8026211B2, “Methods and formulations for increasing intestinal function” (Technion Research & Development Foundation Ltd., priority 2004, dated 2011).
# Assays:
# Assay type in all cases: in vivo
# [1] = tested on: rat model of short bowel syndrome; assay: Rat model of SBS: body weight and intestinal adaptation parameters (bowel circumference, bowel and mucosal weight, mucosal DNA and protein)
# Protocol: (§1) Animal treatment: Animals were obtained from the Rappaport Faculty of Medicine (Technion, Haifa, Israel). Male rats weighing 240-260 g were kept in individual stainless steel cages at constant temperature and humidity, and a 12-hour light-dark cycle was maintained. Rats were fasted 12 hours prior to the experiment with free access to water. Animals underwent one of two surgical procedures: bowel transection and re-anastomosis or 75% bowel resection and anastomosis. General anesthesia was induced with Pentobarbital (IP 40 mg/kg). Using sterile techniques, the abdomen was opened using a midline incision. In sham rats, simple bowel transection and end-to-end re-anastomosis was performed 15 cm proximal to ileo-cecal junction. In SBS animals, small bowel was resected from a point 5 cm distal to the ligament of Treitz to a point 10 cm proximal to the ileo-cecal junction. Bowel continuity was restored by end-to-end anastomosis using 5-0 Vicryl interrupted sutures. For all operations, the abdominal cavity was closed in two layers with a running suture of 3-0 Dexon. Prior to closure of the abdomen, the rats were resuscitated with a 3 ml intraperitoneal injection of warm normal saline. Rats were fasted for 24 hours but were allowed free access to water.
# Experimental design: Forty rats were randomly assigned to one of three groups:
# Group A—sham-rats underwent bowel transection (sham, n=14) and than fed with regular chow diet.
# Group B—SBS-animals underwent bowel resection (SBS, n=13) and than fed regular chow diet.
# (§2) Group C—SBS-Insulin (SBS-INS, n=13) rats underwent bowel resection and were fed regular chow diet and water containing insulin (ACTRAPID insulin, NOVO NORDISK, Denmark) at concentration of 1 u/ml. Food and fluid intake of animals were monitored as well as weight for a period of 14 days following treatment after which the animals were sacrificed following intraperitoneal injection of pentobarbital (75 mg/kg).
# Intestinal adaptation parameters: The small bowel was rapidly removed, rinsed with cold isotonic saline and divided into two segments: jejunum proximal to anastomosis and terminal ileum. Each segment was weighed, cut longitudinally, bowel circumference was measured in three equidistant points as described by Dowling [Dowling R H, Booth C C, 1967, Clin Sci; 32: 139-149] and the mean circumference was calculated. Mucosa was scraped using a glass slide, collected and weighed. Bowel and mucosal weight was calculated per cm of bowel length per 100 g of body weight as described previously [Sukhotnik I, et al., 2002, J Surg Res., December; 108(2):235-42]. Although bowel length may change due to spasm or bowel distension, the calculation per unit of bowel length is considered to be the gold standard in describing structural changes in intestine. DNA and protein were extracted using TRIzol reagent (Rhenium LTD, Jerusalem). The DNA concentrations were recorded in a spectrophotometer and calculated per cm of bowel length. Final protein concentration was measured spectrophotometrically using a commercially available kit (Bio-Rad, Protein Assay) and was calculated per cm of bowel length.
# Statistical analysis: The data are expressed as the mean±SEM. A paired Student's t-test and the non-parametric Kruskal-Wallis ANOVA test were used as indicted. p<0.05 was considered statistically significant.
# [2] = tested on: jejunal and ileal crypt cells; assay: Rat model of SBS: crypt cell proliferation (5-BrdU incorporation); settings: SBS rats, oral insulin, vs SBS-untreated, p<0.05
# Protocol: Animal treatment: Animals were obtained from the Rappaport Faculty of Medicine (Technion, Haifa, Israel). Male rats weighing 240-260 g were kept in individual stainless steel cages at constant temperature and humidity, and a 12-hour light-dark cycle was maintained. Rats were fasted 12 hours prior to the experiment with free access to water. Animals underwent one of two surgical procedures: bowel transection and re-anastomosis or 75% bowel resection and anastomosis. General anesthesia was induced with Pentobarbital (IP 40 mg/kg). Using sterile techniques, the abdomen was opened using a midline incision. […]
# as §2
# Crypt Cell Proliferation and Enterocyte Apoptosis: Rats were injected with standard 5-bromodeoxyuridine (5-BrdU) labeling reagent (Zymed Lab, Inc, CA) at dose 1 ml per 100 g body weight two hours prior to sacrifice. […] An index of proliferation was determined as the ratio of crypt cells staining positively for BrdU per 10 crypts.
# [3] = tested on: enterocytes; assay: Rat ischemia-reperfusion injury: enterocyte apoptosis (TUNEL assay); settings: IR rats, oral insulin; IR-untreated 2.8±0.7; p<0.05
# Protocol: Surgical procedure: Following overnight fasting, the animals were anesthetized with intraperitoneal injection of pentobarbital (IP 40 mg/kg). Using sterile techniques, the abdomen was opened using a midline incision. […] IR underwent laparotomy, mobilization and occlusion of SMA and portal vein by vascular clamp for 30 minutes followed by a reperfusion period of 24 hours. Before closure of the abdomen, the rats were resuscitated with a 3-ml intraperitoneal injection of warm 0.9% saline. For all operations, the abdominal cavity was closed in two layers with a running suture of Dexon “S” Polyglycolic Acid 3/0. Rats were allowed free access to water and food. Twenty-four hours later, the rats were anesthetized with intraperitoneal pentobarbital (75 mg/kg) and were sacrificed by open pneumothorax.
# Apoptotic cells were identified using the terminal deoxynucleotidyl transferase-mediated, dUTP nick end-labeling (TUNEL) assay. Terminal deoxynucleotidyl transferase (TdT) (Boehringer Mannheim GmbH, Mannheim, Germany) was used to label DNA strand breaks. Incorporation of fluorescein was detected by anti-fluorescein antibody Fab fragments from sheep, conjugated with horse-radish peroxidase (POD) (Boehringer Mannheim GmbH, Mannheim, Germany). Briefly, five-micrometer paraffin-embedded sections were dewaxed and rehydrated with xylene and graded alcohol. […]
# [4] = tested on: rat model of short bowel syndrome; assay: Rat model of SBS: histology, villus height and crypt depth
# Protocol: as §1, §2
# Segments of small bowel were fixed for 24 hours in 10% formalin and processed into standard paraffin blocks. Five-micron tissue slices stained with hematoxylin-eosin. The sections were studied microscopically using a micrometer eyepiece. Histological images were loaded on a 760×570 pixels resolution buffer using a computerized image analysis system composed of a trichip RGB video-camera (Sony, Japan), installed on a light microscope (Zeiss, Germany) and attached to an IBM compatible personal computer (Pentium III, MMX, 450 mhz, 125 MB RAM), equipped with a frame grabber. […] The villus height and crypt depth were measured using the Image Pro Plus 4 image analysis software (Media Cybernetics, Baltimore, Md., USA). Ten villi and crypts in each section were measured and the mean reading was recorded in microns.
# [5] = SBS rats, oral insulin 1 u/ml in water, 14 days, vs SBS-untreated, p<0.05
# [6] = SBS rats, oral insulin supplementation (summary)
# [7] = SBS rats, oral insulin, vs SBS-untreated
# [8] = SBS-insulin rats vs SBS-untreated, 14 days, p<0.05
substance,measurement,setting,value
insulin,additional increase in ileal overall bowel weight,[1]; [5],40%
same,additional increase in jejunal mucosal weight,[1]; [5],33%
same,additional increase in jejunal overall bowel weight,[1]; [5],18%
same,increase in ileal mucosal DNA content,[1]; [5],almost two-fold increase
same,increase in ileal mucosal protein content,[1]; [5],two-fold increase
same,increase in ileal mucosal weight,[1]; [5],almost two fold increase
same,increase in mucosal weight in the remaining segments,[1]; [6],30-200%
same,increase in overall bowel weight in the remaining segments,[1]; [6],20-50%
same,increase in bowel diameter,"[1]; SBS rats, oral insulin supplementation, remaining segments (summary)",approximately 10%
same,mucosal DNA in jejunum,[1]; [7],not associated with an increase
same,mucosal protein in jejunum,[1]; [7],not associated with an increase
same,body weight gain,"[1]; SBS-INS rats (insulin 1 u/ml in water) vs SBS-nontreated, day 7 through 14, p<0.05",gained weight at greater rate
same,jejunal and ileal bowel circumference,"[1]; SBS-insulin rats vs SBS-untreated, 14 days, insulin 1 u/ml in water",additional increase
same,additional increase in proliferation index in jejunum,[2],36%
same,increase in proliferation index in ileum,[2],52%
same,apoptotic index in ileum,[3],1.2±0.4 TUNEL positive cells/10 villi
same,villi height in jejunum,[4]; [7],not associated with an increase
same,increase in ileal crypt depth,[4]; [8],40%
same,increase in ileal villus height,[4]; [8],15%
same,increase in jejunal crypt depth,[4]; [8],15%
